Test results as given in ChEMBL document CHEMBL1154041, “Dihydroxy-pyrimidine and N-methylpyrimidone HIV-integrase inhibitors: improving cell based activity by the quaternarization of a chiral center” (Bioorg Med Chem Lett, 2009).

Experiments:
[1] = Distribution coefficient, log D of the compound; type: physicochemical; settings: octanol/water
Homo sapiens = species: Homo sapiens; assay: Fraction unbound in human plasma at pH7.4 after 1 hr by ultrafiltration method; settings: pH 7.4
[2] = molecular target: Human immunodeficiency virus type 1 integrase (Human immunodeficiency virus 1, UniProt Q7ZJM1); assay: Inhibition of recombinant HIV-1 integrase strand transfer activity
[3] = Solubility in phosphate buffered saline at pH 7; type: physicochemical; settings: buffer
[4] = Solubility in phosphate buffered saline at pH 2; type: physicochemical; settings: buffer
[5] = test system: Human immunodeficiency virus 1; assay: Antiviral activity against HIV1 assessed as inhibition of viral replication by spread cell based assay in presence of 10 %FBS; type: functional; settings: read-out: CIC95
Rattus norvegicus [6] = assay: AUC in rat at 3mg/kg, po; type: ADME, organism-based, Plasma; settings: in vivo
[7] = test system: Human immunodeficiency virus 1; assay: Antiviral activity against HIV1 assessed as inhibition of viral replication by spread cell based assay in presence of 50 %NHS; type: functional; settings: read-out: CIC95
Rattus norvegicus [8] = assay: Half life in iv dosed rat plasma; type: ADME, organism-based; settings: in vivo
[9] = Oral bioavailability in rat; type: ADME, organism-based; settings: in vivo
[10] = Plasma clearance in iv dosed rat; type: ADME, organism-based

| Compound | logD [1] | fraction unbound at 1 h (Homo sapiens) | IC50 [2] [nM] | solubility [3] | solubility [4] | AUC (Rattus norvegicus [6]) [µM·h] | t1/2 (Rattus norvegicus [8]) [h] | bioavailability [9] [%] | clearance [10] [mL/min/kg] | IC95 ([5]; Human immunodeficiency virus 1) [nM] | IC95 [7] [nM] | IC95 [5] [nM] |
| --- | --- | --- | --- | --- | --- | --- | --- | --- | --- | --- | --- | --- |
| CC(=O)N1CCN(C)CC1(C)c1nc(C(=O)NCc2ccc(F)cc2)c(O)c(=O)[nH]1 (racemic) | 0.9 | 0.13 | 100 | Soluble | Soluble | – | – | – | – | 600 | – | – |
| Cc1nc(C)c(C(=O)N2CCCCC2c2nc(C(=O)NCc3ccc(F)cc3)c(O)c(=O)[nH]2)s1 (racemic) | 1.5 | 0.1 | 50 | Soluble | Soluble | – | – | – | – | > 1000 | – | – |
| CN1CCN(C(=O)c2cnccn2)C(c2nc(C(=O)NCc3ccc(F)cc3)c(O)c(=O)[nH]2)C1 (racemic) | 0.6 | 0.1 | 60 | Soluble | Soluble | – | – | – | – | 350 | – | – |
| CN1CCCCC1(C)c1nc(C(=O)NCc2ccc(F)cc2)c(O)c(=O)n1C (racemic) | – | 0.38 | 550 | Soluble | Soluble | – | – | – | – | > 1000 | – | – |
| CC(=O)N1CCCCC1c1nc(C(=O)NCc2ccc(F)cc2)c(O)c(=O)[nH]1 (racemic) | 1.2 | 0.01 | 20 | Soluble | Soluble | – | – | – | – | 270 | – | – |
| O=C(NCc1ccc(F)cc1)c1nc(C2CCCN2)[nH]c(=O)c1O (racemic) | – | 0.2 | 120 | Soluble | Soluble | – | – | – | – | 2500 | – | – |
| CN1CCN(S(C)(=O)=O)CC1(C)c1nc(C(=O)NCc2ccc(F)cc2)c(O)c(=O)n1C (single isomer, unassigned; (+)) | – | – | 20 | – | – | – | – | – | – | – | 60 | <8 |

More lines, in order of falling IC50 [2], values ahead:

| logD [1] | fraction unbound at 1 h (Homo sapiens) | IC50 [2] [nM] | solubility [3] | solubility [4] | AUC (Rattus norvegicus [6]) [µM·h] | t1/2 (Rattus norvegicus [8]) [h] | bioavailability [9] [%] | clearance [10] [mL/min/kg] | Compound | IC95 ([5]; Human immunodeficiency virus 1) [nM] | IC95 [7] [nM] | IC95 [5] [nM] |
| --- | --- | --- | --- | --- | --- | --- | --- | --- | --- | --- | --- | --- |
| 0.9 | 0.18 | 100 | Soluble | Soluble | – | – | – | – | CN1CCN(C(=O)c2cnccn2)C(C)(c2nc(C(=O)NCc3ccc(F)cc3)c(O)c(=O)[nH]2)C1 (racemic) | 160 | – | – |
| – | 0.08 | 40 | Soluble | Soluble | – | – | – | – | CC(=O)N1CCCC1c1nc(C(=O)NCc2ccc(F)cc2)c(O)c(=O)[nH]1 (racemic) | > 1000 | – | – |
| 0.4 | 0.1 | 30 | Soluble | Soluble | – | – | – | – | CC(=O)N1CCN(C)CC1c1nc(C(=O)NCc2ccc(F)cc2)c(O)c(=O)[nH]1 (racemic) | 790 | – | – |
| 2.9 | 0.19 | 20 | Soluble | Soluble | – | – | – | – | CN1CCN(S(=O)(=O)N(C)C)CC1(C)c1nc(C(=O)NCc2ccc(F)cc2)c(O)c(=O)n1C (racemic) | 20 | – | – |
| – | 0.29 | 20 | Soluble | Soluble | – | – | – | – | CC1(c2nc(C(=O)NCc3ccc(F)cc3)c(O)c(=O)[nH]2)CCCCN1 (racemic) | 160 | – | – |
| – | – | 20 | – | – | – | – | – | – | CN1CCN(S(C)(=O)=O)CC1(C)c1nc(C(=O)NCc2ccc(F)cc2)c(O)c(=O)n1C (single isomer, unassigned; (-)) | – | 20 | – |
| – | 0.04 | 15 | Soluble | Soluble | 2.2 | 2.1 | 73 | 33 | CN1CCN(S(C)(=O)=O)CC1(C)c1nc(C(=O)NCc2ccc(F)cc2)c(O)c(=O)n1C (racemic) | 4 | 40 | – |
| 1.7 | 0.09 | 14 | Soluble | Soluble | – | – | – | – | CC(=O)N1CCCCC1(C)c1nc(C(=O)NCc2ccc(F)cc2)c(O)c(=O)[nH]1 (racemic) | 80 | – | – |
